Measurements published in US4009166A, “Pyrido(2,3-d) pyrimidinones” (Hisamitsu Pharmaceutical Co., Inc., priority 1974, dated 1977).
Where a name gives a salt, the structure may show the parent alone. Read-outs that look alike come from different tables or passages of the source.

How the values were obtained:
[1] = tested on: righting reflex of dd-strain male mice; assay: Central nervous system depressive effect (disappearance of righting reflex); format: in vivo; conditions: Mus musculus, ip, read-out: C N S depressive effect (dose required for the disappearance of righting reflex)
Description: 4. Central nervous system depressive effect
Each test compound suspended in 0.5% tragacanth-saline solution was injected intraperitoneally to dd-strain male mice (16-24 g). The disappearance of righting reflex was observed under noiseless circumstances. The dose required for the disappearance of righting reflex is indicated with the following notations: […]

[2] = tested on: carrageenin edema in Wistar-strain male rats; assay: Anti-inflammatory effect (carrageenin edema of the hind paw); format: in vivo; conditions: for inhibition in vivo at 10 mg/kg / inhibition in vivo at 50 mg/kg: Rattus norvegicus, po; for inhibition in vivo at 10 mg/kg: read-out: anti-inflammatory effect dose(mg/kg) 10 (inhibition percentage of carrageenin edema); for inhibition in vivo at 50 mg/kg: read-out: anti-inflammatory effect dose(mg/kg) 50 (inhibition percentage of carrageenin edema)
Description: 2. Anti-inflammatory effect
A group of five Wistar-strain male rats (100-150 g) were orally administered with each test compound suspended in 0.5% tragacanth-saline solution. After 30 minutes 0.5-1.0% carrageenin suspended in the water for injection was injected subcutaneously to a hind paw. After 3 hours the carrageenin edema was measured by volume and the inhibition percentage was determined with respect to the results for the control animals. The inhibition percentages were shown with the notations as follows: […]

[3] = tested on: writhing syndrome in dd-strain male mice; assay: Analgetic effect (acetic acid writhing syndrome); format: in vivo; conditions: Mus musculus, po, orally, 0.6% acetic acid writhing, Litchfield-Wilcoxon, read-out: analgetic effect ED50 (95 % C.L.)
Description: 3. Analgetic effect Each test compound suspended in 0.5% tragacanth-saline solution was orally administered to dd-strain male mice (18-20 g). After one hour 0.6% acetic acid solution was intraperitoneally injected in a volume of 0.1 ml/10 g.

[4] = tested on: dd-strain male mice; conditions: deaths 72 hours after administration
Description: The lethal dose was estimated from the death of animals 72 hours after administration.

[5] = tested on: writhing syndrome in dd-strain male mice; assay: Analgetic effect (acetic acid writhing syndrome); format: in vivo; conditions: Mus musculus, ip, read-out: analgetic effect ED50 (95 % C.L.), i.p.
[6] = 10 mg/kg orally, rats, edema volume 3 hours after carrageenin
[7] = 50 mg/kg orally, rats, edema volume 3 hours after carrageenin

Structure (SMILES)	minimal effective dose [1] [mg/kg]	inhibition in vivo at 10 mg/kg [2, 6] [%]	inhibition in vivo at 50 mg/kg [2, 7] [%]	ED50 [3] [mg/kg]	minimal effective dose ([1]; intraperitoneally, mice) [mg/kg]	acute toxicity i.p. (lethal dose) [4]	ED50 [5] [mg/kg]	acute toxicity p.o. (lethal dose) [4] [mg/kg]	inhibition in vivo at 10 mg/kg ([2]; 3 h) [%]	inhibition in vivo at 50 mg/kg ([2]; 3 h) [%]	anti-inflammatory effect dose(mg/kg) 10 (inhibition percentage of carrageenin edema) [2, 6]
Cc1ccccc1-n1c(C)nc2ccccc2c1=O [methaqualone, reference compound]	10 to 30										
CN1CN(c2cccc(C(F)(F)F)c2)c2ncccc2C1=O [drawing 122/CH3]		16 to 30	< 15								
CCN1Cc2cccnc2N(c2ccc(F)cc2)C1=O [drawing 129/C2 H5]		46 to 60	46 to 60	4.9	10 to 30						
COCN1CN(c2cccc(Cl)c2)c2ncccc2C1=O [drawing 119/CH2 OCH3]		16 to 30	16 to 30	> 100							
CCN1CN(c2cccc(C(F)(F)F)c2)c2ncccc2C1=O [drawing 122/C2 H5]		16 to 30	> 61	> 100	30 to 100	> 1000 mg/kg					
Cc1c(N(C)C)c(=O)n(-c2ccccc2)n1C [aminopyrine, reference compound]		< 15	< 15			100 to 300 mg/kg	56				
O=C1N(CCO)Cc2cccnc2N1c1cccc(C(F)(F)F)c1 [drawing 135/CH2 CH2 OH]			16 to 30	55	> 1000	> 1000 mg/kg		> 2000			
CN1Cc2cccnc2N(c2ccccc2)C1=O [drawing 126/CH3]		31 to 45	46 to 60	13	3 to 10						
CCN1Cc2cccnc2N(c2cccc(F)c2)C1=O [drawing 127/C2 H5]		> 61	> 61	4.4	< 3						
CN1CN(c2cccc(Br)c2)c2ncccc2C1=O [drawing 121/CH3]			< 15	> 100	30 to 100	> 1000 mg/kg					
CC(C)N1CN(c2cccc([N+](=O)[O-])c2)c2ncccc2C1=O		46 to 60	46 to 60	4.7	100 to 300	> 1000 mg/kg		< 2000			
CCN1Cc2cccnc2N(c2cccc(Br)c2)C1=O [drawing 134/C2 H5]		46 to 60	46 to 60	2.85	< 3	100 300 mg/kg					
CCN1Cc2cccnc2N(c2ccccc2)C1=O [drawing 126/C2 H5]		46 to 60	46 to 60	2.1	3 to 10	300 mg/kg					
CN1C(=O)CN=C(c2ccccc2)c2cc(Cl)ccc21 [diazepam, reference compound]	30 to 100								< 15	16 to 30	
CC(C)N1Cc2cccnc2N(c2cccc(F)c2)C1=O		31 to 45	> 61	4.5	3 to 10						
CC(C)N1Cc2cccnc2N(c2cccc(C(F)(F)F)c2)C1=O		< 15	46 to 60	6.7	10 to 30	> 1000 mg/kg		2000			
CC(C)N1Cc2cccnc2N(c2ccc(Cl)c(Cl)c2)C1=O		46 to 60	> 61	16.3	3 to 10	1000 mg/kg		2000			
CCN1CN(c2cccc(Br)c2)c2ncccc2C1=O [drawing 121/C2 H5]			31 to 45	> 100	30 to 100	> 1000 mg/kg					

Structure (SMILES)	minimal effective dose [1] [mg/kg]	inhibition in vivo at 10 mg/kg [2, 6] [%]	inhibition in vivo at 50 mg/kg [2, 7] [%]	ED50 [3] [mg/kg]	minimal effective dose ([1]; intraperitoneally, mice) [mg/kg]	acute toxicity i.p. (lethal dose) [4]	ED50 [5] [mg/kg]	acute toxicity p.o. (lethal dose) [4] [mg/kg]	inhibition in vivo at 10 mg/kg ([2]; 3 h) [%]	inhibition in vivo at 50 mg/kg ([2]; 3 h) [%]	anti-inflammatory effect dose(mg/kg) 10 (inhibition percentage of carrageenin edema) [2, 6]
CN1CN(c2cccc([N+](=O)[O-])c2)c2ncccc2C1=O [drawing 123/CH3, 1-(m-nitrophenyl)-3-methyl-4-oxo-1,2,3,4-tetrahydropyrido[2,3-d]pyrimidine]		< 15	16 to 30	22	> 1000	> 1000 mg/kg					
CCN1Cc2cccnc2N(c2ccc(Cl)cc2)C1=O [drawing 133/C2 H5]			46 to 60	49	< 3						+ ++
CC(C)N1CN(c2cccc(Cl)c2)c2ncccc2C1=O		16 to 30	31 to 45	> 100							
CN1Cc2cccnc2N(c2cccc(C(F)(F)F)c2)C1=O [drawing 135/CH3, 1-(m-trifluoromethylphenyl)-3-methyl-2-oxo-1,2,3,4-tetrahydropyrido[2,3-d]pyrimidine]		16 to 30	46 to 60	6.6	3 to 10			< 500			
CCN1Cc2cccnc2N(c2cccc(C(F)(F)F)c2)C1=O [drawing 135/C2 H5, 1-(m-trifluoromethylphenyl)-3-ethyl-2-oxo-1,2,3,4-tetrahydropyrido[2,3-d]pyrimidine]		31 to 45	46 to 60	6.3	3 to 10						
COCN1CN(c2cccc([N+](=O)[O-])c2)c2ncccc2C1=O [drawing 123/CH2 OCH3 . HCl]		46 to 60	46 to 60	2.7				< 2000			
CCCN1Cc2cccnc2N(c2cccc(Br)c2)C1=O [drawing 134/CH2 CH2 CH3]		46 to 60	46 to 60	2.65	3 to 10			< 2000			
CN1Cc2cccnc2N(c2ccccc2Cl)C1=O [drawing 130/CH3]			16 to 30	44	30 to 100						
C=CCN1Cc2cccnc2N(c2cccc(Cl)c2)C1=O [drawing 132/CH2 CHCH2]		46 to 60	46 to 60	1.2	3 to 10						
O=C1N(CCF)Cc2cccnc2N1c1ccc(Cl)c(Cl)c1 [drawing 137/CH2 CH2 F]		> 61		1	3 to 10						
CCN1CN(c2cccc([N+](=O)[O-])c2)c2ncccc2C1=O [drawing 123/C2 H5]		31 to 45	> 61	1.95	30 to 100	1000 mg/kg		2000			
CN1Cc2cccnc2N(c2cccc(Cl)c2)C1=O [drawing 132/CH3, 1-(m-chlorophenyl)-3-methyl-2-oxo-1,2,3,4-tetrahydropyrido[2,3-d]pyrimidine]		46 to 60	> 61	13	< 3						
COCN1Cc2cccnc2N(c2cccc(C(F)(F)F)c2)C1=O [drawing 135/CH2 OCH3]			31 to 45	8.1	10 to 30						
O=C(O)c1ccccc1Nc1cccc(C(F)(F)F)c1 [flufenamic acid, reference compound]		< 15	16 to 30	180	> 1000	300 to 1000 mg/kg					
CCCCC1C(=O)N(c2ccccc2)N(c2ccccc2)C1=O [phenylbutazone, reference compound]		< 15	31 to 45	290	300 to 1000						
COCN1Cc2cccnc2N(c2cccc(Cl)c2)C1=O [drawing 132/CH2 OCH3]		46 to 60	> 61	1.6	3 to 10						
O=C(O)CN1Cc2cccnc2N(c2cccc(C(F)(F)F)c2)C1=O [drawing 135/CH2 COOH]				> 100	> 1000	> 1000 mg/kg		> 2000			
CCN1Cc2cccnc2N(c2ccc(Cl)c(Cl)c2)C1=O [drawing 137/C2 H5]		46 to 60	46 to 60	1.3	< 3						
